Patent publication US20150087605A1 (priority 2013, published 2015)
Like-named read-outs stand apart in the source and are kept apart here.

Legend:
[1] = target: LF protease activity (Bacillus anthracis, UniProt P15917); experiment: biochemical
[2] = test system: RAW 264.7 macrophages treated with LeTx (PA and LF); experiment: cells; conditions: Mus musculus, RAW264.7, read-out: IC50 Cell Viability
[3] = target: Anthrax Lethal Factor (LF) (Bacillus anthracis, UniProt P15917); experiment: biochemical; assay type: binding
Sequence of Anthrax Lethal Factor (LF) (P15917 34-809 limits assumed): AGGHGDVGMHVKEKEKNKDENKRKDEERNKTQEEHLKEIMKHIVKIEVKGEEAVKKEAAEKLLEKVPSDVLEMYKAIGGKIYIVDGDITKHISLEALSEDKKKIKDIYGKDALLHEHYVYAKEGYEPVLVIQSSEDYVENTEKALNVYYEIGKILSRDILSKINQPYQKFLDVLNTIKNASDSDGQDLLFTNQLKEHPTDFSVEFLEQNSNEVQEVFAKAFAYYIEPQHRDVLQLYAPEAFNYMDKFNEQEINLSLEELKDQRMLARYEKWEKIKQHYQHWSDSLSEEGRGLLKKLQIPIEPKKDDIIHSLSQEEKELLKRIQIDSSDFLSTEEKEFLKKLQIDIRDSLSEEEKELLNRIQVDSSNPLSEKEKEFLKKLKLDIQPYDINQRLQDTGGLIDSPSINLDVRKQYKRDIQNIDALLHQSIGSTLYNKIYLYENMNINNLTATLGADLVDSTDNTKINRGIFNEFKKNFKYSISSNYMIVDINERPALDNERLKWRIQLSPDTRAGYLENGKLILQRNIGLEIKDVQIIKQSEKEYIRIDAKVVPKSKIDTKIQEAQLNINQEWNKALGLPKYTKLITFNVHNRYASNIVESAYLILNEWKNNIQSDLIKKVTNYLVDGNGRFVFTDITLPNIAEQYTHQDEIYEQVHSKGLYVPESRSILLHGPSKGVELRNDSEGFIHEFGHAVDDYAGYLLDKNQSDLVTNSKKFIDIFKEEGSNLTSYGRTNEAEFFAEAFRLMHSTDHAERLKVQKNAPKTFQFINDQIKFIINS

[4] = test system: RAW 264.7 macrophages treated with LeTx (PA and LF)
[5] = target: COX-1 (Homo sapiens, UniProt P23219); conditions: read-out: IC50 COX-1; cited from earlier work
Sequence of COX-1 (P23219 24-599): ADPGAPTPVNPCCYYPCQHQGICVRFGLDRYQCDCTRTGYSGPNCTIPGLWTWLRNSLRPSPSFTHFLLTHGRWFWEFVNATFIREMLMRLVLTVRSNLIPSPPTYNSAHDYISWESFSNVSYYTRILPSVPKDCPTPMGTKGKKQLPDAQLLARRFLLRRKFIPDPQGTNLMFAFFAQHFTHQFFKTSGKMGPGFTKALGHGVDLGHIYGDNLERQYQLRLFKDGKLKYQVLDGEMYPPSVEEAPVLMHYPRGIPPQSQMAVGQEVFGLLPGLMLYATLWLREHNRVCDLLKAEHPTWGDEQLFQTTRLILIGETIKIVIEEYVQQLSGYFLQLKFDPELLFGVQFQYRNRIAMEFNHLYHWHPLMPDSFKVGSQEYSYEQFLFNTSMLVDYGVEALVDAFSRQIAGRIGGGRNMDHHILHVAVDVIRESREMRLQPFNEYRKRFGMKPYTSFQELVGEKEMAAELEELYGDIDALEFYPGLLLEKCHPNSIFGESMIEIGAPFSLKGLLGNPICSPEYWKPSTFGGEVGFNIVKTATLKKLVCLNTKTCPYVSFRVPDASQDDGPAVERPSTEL

[6] = target: COX-2 (Homo sapiens, UniProt P35354); conditions: read-out: IC50 COX-2; cited from earlier work
Sequence of COX-2 (P35354 18-604): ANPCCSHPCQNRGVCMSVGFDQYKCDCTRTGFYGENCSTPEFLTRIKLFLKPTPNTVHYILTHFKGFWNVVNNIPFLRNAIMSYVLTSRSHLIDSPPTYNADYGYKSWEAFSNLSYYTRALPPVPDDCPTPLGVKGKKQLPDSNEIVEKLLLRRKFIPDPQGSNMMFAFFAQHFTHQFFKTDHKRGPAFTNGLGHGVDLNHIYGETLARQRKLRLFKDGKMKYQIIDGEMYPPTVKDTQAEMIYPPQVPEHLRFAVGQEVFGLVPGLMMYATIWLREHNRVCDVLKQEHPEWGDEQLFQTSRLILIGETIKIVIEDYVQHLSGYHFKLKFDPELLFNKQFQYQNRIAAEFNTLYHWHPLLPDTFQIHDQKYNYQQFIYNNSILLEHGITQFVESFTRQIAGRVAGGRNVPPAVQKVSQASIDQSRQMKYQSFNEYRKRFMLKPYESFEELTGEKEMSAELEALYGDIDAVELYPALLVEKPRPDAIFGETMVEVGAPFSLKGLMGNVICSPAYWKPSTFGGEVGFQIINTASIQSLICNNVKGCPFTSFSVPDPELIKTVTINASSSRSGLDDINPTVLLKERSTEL

[7] = in vivo, cited from earlier work

Sequence of LF protease activity (P15917 34-809 limits assumed): as the sequence (P15917 34-809 limits assumed) above

`CCCCc1ccc(C(=O)NCCCN=[N+]=[N-])nc1` [fusaric acid-N3] showed an IC50 ([1]; IC50 (fluorogenic substrate assay)) of 1100 µM and an IC50 [2] of 164 µM.

`CCCCc1ccc(C(=O)O)nc1` [Fusaric Acid] showed a Kd [3] of 4.5 µM, an IC50 ([1]; IC50 Protease Activity) of 530 µM and an IC50 [2] of 75.3 µM.

In the case of `COc1ccc2cc([C@H](C)C(=O)O)ccc2c1` [Naproxen, (S)-(+)-6-Methoxy-α-methyl-2-naphthaleneacetic acid], the “inhibition of LF protease activity (in words)” value [1] is reported as “failed to inhibit LF” and the “inhibition of LeTx cytotoxicity (in words)” value [4] is reported as “failed to inhibit LeTx”.

`CSc1ccc(/C=C2/C(C)=C(CC(=O)O)c3cc(F)ccc32)cc1` [sulindac sulfide, Sulindac Sulfide] showed an IC50 ([1]; IC50 Protease Activity) of 19.1 µM and an IC50 [2] of 20.4 µM.

For `CC1=C(CC(=O)NCCCN=[N+]=[N-])c2cc(F)ccc2/C1=C\c1ccc([S+](C)[O-])cc1` (stereo not shown) [sulindac-N3], the IC50 ([1]; IC50 Protease Activity) was 420 µM and the IC50 [2] was 90.1 µM.

For `CC1=C(CC(=O)O)c2cc(F)ccc2/C1=C\c1ccc(S(C)(=O)=O)cc1` [sulindac sulfone, Sulindac Sulfone], the IC50 ([1]; read-out: IC50 Protease Activity) was 185 µM and the IC50 ([4]; read-out: IC50 Cell Viability) was 56.6 µM.

Work on `CC1=C(CC(=O)O)c2cc(F)ccc2/C1=C\c1ccc([S+](C)[O-])cc1` (stereo not shown) [Sulindac] yielded a Kd [3] of 2.8 µM, an IC50 ([1]; IC50 Protease Activity) of 173 µM and an IC50 [2] of 31.7 µM. The IC50 [5] was 41.3 µM, the IC50 [6] was 25 µM and the mean half-life ([7]; 150 mg) was 7.8 h. The “maximum concentration in human blood plasma” value [7] was 5.71 ± 2.17 µg/mL.

With `CCCCc1ccc(C(=O)NCCCn2cc(CNC(C)=O)nn2)nc1` [fusaric acid-bMR] the IC50 ([1]; IC50 Protease Activity) was 1.2 ± 0.36 µM and the IC50 ([4]; mouse) was 0.721 µM.
